We go through eleven compounds from ChEMBL document CHEMBL1142983, “Carbonic anhydrase inhibitors: inhibition of isozymes I, II, and IX with triazole-linked O-glycosides of benzene sulfonamides” (J Med Chem, 2007).

In one experiment the target is Carbonic anhydrase 9 (Homo sapiens, UniProt Q16790).
In a further experiment the target is Carbonic anhydrase 2 (Homo sapiens, UniProt P00918).

Each structure is given as a SMILES string. pKi: −log10 of the molar value.

Description for Carbonic anhydrase 2: Inhibition of human recombinant isozyme CA2 by CO2 hydration method
Description for Carbonic anhydrase 9: Inhibition of catalytic domain of human recombinant isozyme CA9 by CO2 hydration method

In the case of `CC(=O)OC[C@H]1O[C@@H](OCc2cn(-c3ccc(S(N)(=O)=O)cc3)nn2)[C@H](OC(C)=O)[C@@H](OC(C)=O)[C@H]1OC(C)=O`, on Carbonic anhydrase 9, the pKi – broadly, the negative decadic logarithm of the Ki, by convention in mol/L – is 8.01. On the same count and under the same terms, for `NS(=O)(=O)c1ccc(-n2cc(CO[C@@H]3O[C@H](CO)[C@@H](O[C@H]4O[C@H](CO)[C@@H](O)[C@H](O)[C@H]4O)[C@H](O)[C@H]3O)nn2)cc1` the value was 7.08. On to `CC(=O)O[C@H]1[C@H](OC(C)=O)C(OCc2cn(-c3ccc(S(N)(=O)=O)cc3)nn2)OC[C@H]1OC(C)=O` (some centres undefined), for which the pKi is 7.14 on Carbonic anhydrase 9 and 8.03 at Carbonic anhydrase 2. Turning to `CC(=O)OC[C@H]1O[C@H](O[C@H]2[C@H](OC(C)=O)[C@@H](OC(C)=O)[C@H](OCc3cn(-c4ccc(S(N)(=O)=O)cc4)nn3)O[C@@H]2COC(C)=O)[C@H](OC(C)=O)[C@@H](OC(C)=O)[C@@H]1OC(C)=O`, the pKi on Carbonic anhydrase 2 is 8.11. Turning to `NS(=O)(=O)c1ccc(-n2cc(CO[C@@H]3O[C@H](CO)[C@@H](O)[C@H]3O)nn2)cc1`, at Carbonic anhydrase 9, the pKi is 7.16. Turning to `CC(=O)OC[C@H]1O[C@@H](OCc2cn(-c3ccc(S(N)(=O)=O)cc3)nn2)[C@H](OC(C)=O)[C@@H](OC(C)=O)[C@@H]1OC(C)=O`, the pKi on Carbonic anhydrase 9 was 6.97. Turning to `NS(=O)(=O)c1ccc(-n2cc(CO[C@@H]3O[C@H](CO)[C@H](O)[C@H](O)[C@H]3O)nn2)cc1`, the results for the pKi at Carbonic anhydrase 9 and on Carbonic anhydrase 2 were 6.92 and 7.28, respectively. Turning to `[N-]=[N+]=Nc1ccc(S(N)(=O)=O)cc1`, the pKi at Carbonic anhydrase 9 was 6.98. Same read-out and setting: the same measure for `NS(=O)(=O)c1ccc(-n2cc(CO[C@@H]3O[C@H](CO)[C@@H](O)[C@H](O)[C@H]3O)nn2)cc1`: 7.00. On to `NS(=O)(=O)c1ccc(-n2cc(COC3OC[C@@H](O)[C@@H](O)[C@@H]3O)nn2)cc1` (some centres undefined), for which the pKi was 6.99 at Carbonic anhydrase 9 and 8.16 on Carbonic anhydrase 2.

At Carbonic anhydrase 2, `NS(=O)(=O)c1ccc(-n2cc(CO[C@@H]3O[C@H](COCc4ccccc4)[C@@H](OCc4ccccc4)[C@H]3OCc3ccccc3)nn2)cc1` showed a pKi of 8.12.
